Results as given in ChEMBL document CHEMBL3885881, “DrugMatrix”.

Organism: Rattus norvegicus
Experiment: DrugMatrix - Regimen: Daily Repeat
Assay type: toxicity, organism-based, Sprague-Dawley
Parameters: regimen Daily Repeat, gender Male, age 6-8 weeks
Conditions: in vivo, po, route oral GAVAGE, vehicle .5 % CMC; for BASOPHIL / EOSINOPHIL / ERYTHROCYTE COUNT / HEMATOCRIT / HEMOGLOBIN / LEUKOCYTE COUNT / LYMPHOCYTE / MEAN CORPUSCULAR HEMOGLOBIN / MEAN CORPUSCULAR HEMOGLOBIN CONCENTRATION / MEAN CORPUSCULAR VOLUME / MONOCYTE / NEUTROPHIL / PLATELET COUNT: tissue Blood; for ALANINE AMINOTRANSFERASE / ALBUMIN / ALKALINE PHOSPHATASE / ASPARTATE AMINOTRANSFERASE / BLOOD UREA NITROGEN / CHLORIDE / CHOLESTEROL / CREATINE PHOSPHOKINASE / CREATININE / GLUCOSE / PHOSPHORUS / POTASSIUM / SODIUM / TOTAL PROTEIN: tissue Plasma
[1] = 0 mg/kg, 72 h, dose level Control, time 3 day
[2] = 0 mg/kg, 120 h, dose level Control, time 5 day
[3] = 50 mg/kg, 72 h, dose level Low, time 3 day
[4] = 50 mg/kg, 120 h, dose level Low, time 5 day
[5] = 2000 mg/kg, 72 h, dose level High, time 3 day
[6] = 2000 mg/kg, 120 h, dose level High, time 5 day

NC1CCN(c2nc3c(cc2F)c(=O)c(C(=O)O)cn3-c2ccc(F)cc2F)C1 (configuration not stated) [TOSUFLOXACIN]
BASOPHIL [1]: 0%
EOSINOPHIL [1]: 0.4%
ERYTHROCYTE COUNT [1]: 6.43 x10E6/uL
HEMATOCRIT [1]: 37.36%
HEMOGLOBIN [1]: 13.98 G/DL
LEUKOCYTE COUNT [1]: 13 x10E3/uL
LYMPHOCYTE [1]: 81.4%
MEAN CORPUSCULAR HEMOGLOBIN [1]: 21.9 pg
MEAN CORPUSCULAR HEMOGLOBIN CONCENTRATION [1]: 37.4 G/DL
MEAN CORPUSCULAR VOLUME [1]: 58.52 fL
MONOCYTE [1]: 0.4%
NEUTROPHIL [1]: 18%
PLATELET COUNT [1]: 1386 x10E3/uL
ALANINE AMINOTRANSFERASE [1]: 39.33 u/L
ALBUMIN [1]: 3.57 G/DL
ALKALINE PHOSPHATASE [1]: 283.83 u/L
ASPARTATE AMINOTRANSFERASE [1]: 69.5 u/L
BLOOD UREA NITROGEN [1]: 14.83 mg/dL
CHLORIDE [1]: 107.33 MEQ/L
CHOLESTEROL [1]: 75.17 mg/dL
CREATINE PHOSPHOKINASE [1]: 107.67 u/L
CREATININE [1]: 0.48 mg/dL
GLUCOSE [1]: 172.5 mg/dL
PHOSPHORUS [1]: 10.48 mg/dL
POTASSIUM [1]: 6.9 MEQ/L
SODIUM [1]: 152.33 MEQ/L
TOTAL PROTEIN [1]: 5.9 G/DL
BASOPHIL [2]: 0%
EOSINOPHIL [2]: 0.4%
ERYTHROCYTE COUNT [2]: 6.96 x10E6/uL
HEMATOCRIT [2]: 41.12%
HEMOGLOBIN [2]: 15.24 G/DL
LEUKOCYTE COUNT [2]: 11.06 x10E3/uL
LYMPHOCYTE [2]: 88.6%
MEAN CORPUSCULAR HEMOGLOBIN [2]: 21.96 pg
MEAN CORPUSCULAR HEMOGLOBIN CONCENTRATION [2]: 37.1 G/DL
MEAN CORPUSCULAR VOLUME [2]: 59.12 fL
MONOCYTE [2]: 0.2%
NEUTROPHIL [2]: 10.8%
PLATELET COUNT [2]: 1155.8 x10E3/uL
ALANINE AMINOTRANSFERASE [2]: 36.33 u/L
ALBUMIN [2]: 3.72 G/DL
ALKALINE PHOSPHATASE [2]: 340.33 u/L
ASPARTATE AMINOTRANSFERASE [2]: 68.33 u/L
BLOOD UREA NITROGEN [2]: 15 mg/dL
CHLORIDE [2]: 108.17 MEQ/L
CHOLESTEROL [2]: 74.67 mg/dL
CREATINE PHOSPHOKINASE [2]: 110.67 u/L
CREATININE [2]: 0.47 mg/dL
GLUCOSE [2]: 171.33 mg/dL
PHOSPHORUS [2]: 10.05 mg/dL
POTASSIUM [2]: 6.7 MEQ/L
SODIUM [2]: 155.5 MEQ/L
TOTAL PROTEIN [2]: 6.33 G/DL
BASOPHIL [3]: 0%
EOSINOPHIL [3]: 0%
ERYTHROCYTE COUNT [3]: 6.96 x10E6/uL
HEMATOCRIT [3]: 39.2%
HEMOGLOBIN [3]: 14.2 G/DL
LEUKOCYTE COUNT [3]: 12.93 x10E3/uL
LYMPHOCYTE [3]: 90%
MEAN CORPUSCULAR HEMOGLOBIN [3]: 20.4 pg
MEAN CORPUSCULAR HEMOGLOBIN CONCENTRATION [3]: 36.27 G/DL
MEAN CORPUSCULAR VOLUME [3]: 56.3 fL
MONOCYTE [3]: 0%
NEUTROPHIL [3]: 10%
PLATELET COUNT [3]: 1074.33 x10E3/uL
ALANINE AMINOTRANSFERASE [3]: 36.67 u/L
ALBUMIN [3]: 3.4 G/DL
ALKALINE PHOSPHATASE [3]: 240 u/L
ASPARTATE AMINOTRANSFERASE [3]: 66.33 u/L
BLOOD UREA NITROGEN [3]: 13 mg/dL
CHLORIDE [3]: 106.33 MEQ/L
CHOLESTEROL [3]: 63 mg/dL
CREATINE PHOSPHOKINASE [3]: 121.33 u/L
CREATININE [3]: 0.53 mg/dL
GLUCOSE [3]: 176.67 mg/dL
PHOSPHORUS [3]: 10.7 mg/dL
POTASSIUM [3]: 6.8 MEQ/L
SODIUM [3]: 151.33 MEQ/L
TOTAL PROTEIN [3]: 5.6 G/DL
BASOPHIL [4]: 0%
EOSINOPHIL [4]: 0%
ERYTHROCYTE COUNT [4]: 6.08 x10E6/uL
HEMATOCRIT [4]: 34.23%
HEMOGLOBIN [4]: 12.7 G/DL
LEUKOCYTE COUNT [4]: 19.4 x10E3/uL
LYMPHOCYTE [4]: 93.33%
MEAN CORPUSCULAR HEMOGLOBIN [4]: 21 pg
MEAN CORPUSCULAR HEMOGLOBIN CONCENTRATION [4]: 37.13 G/DL
MEAN CORPUSCULAR VOLUME [4]: 56.57 fL
MONOCYTE [4]: 0%
NEUTROPHIL [4]: 6.67%
PLATELET COUNT [4]: 1222.33 x10E3/uL
ALANINE AMINOTRANSFERASE [4]: 34 u/L
ALBUMIN [4]: 3.43 G/DL
ALKALINE PHOSPHATASE [4]: 218.33 u/L
ASPARTATE AMINOTRANSFERASE [4]: 56.33 u/L
BLOOD UREA NITROGEN [4]: 11 mg/dL
CHLORIDE [4]: 108 MEQ/L
CHOLESTEROL [4]: 63.33 mg/dL
CREATINE PHOSPHOKINASE [4]: 106.33 u/L
CREATININE [4]: 0.5 mg/dL
GLUCOSE [4]: 169.67 mg/dL
PHOSPHORUS [4]: 10.13 mg/dL
POTASSIUM [4]: 6.4 MEQ/L
SODIUM [4]: 152 MEQ/L
TOTAL PROTEIN [4]: 5.67 G/DL
BASOPHIL [5]: 0%
EOSINOPHIL [5]: 0%
ERYTHROCYTE COUNT [5]: 6.75 x10E6/uL
HEMATOCRIT [5]: 40.45%
HEMOGLOBIN [5]: 14.85 G/DL
LEUKOCYTE COUNT [5]: 13.75 x10E3/uL
LYMPHOCYTE [5]: 88.5%
MEAN CORPUSCULAR HEMOGLOBIN [5]: 22.05 pg
MEAN CORPUSCULAR HEMOGLOBIN CONCENTRATION [5]: 36.65 G/DL
MEAN CORPUSCULAR VOLUME [5]: 59.95 fL
MONOCYTE [5]: 0%
NEUTROPHIL [5]: 11.5%
PLATELET COUNT [5]: 1313.5 x10E3/uL
ALANINE AMINOTRANSFERASE [5]: 30.33 u/L
ALBUMIN [5]: 3.63 G/DL
ALKALINE PHOSPHATASE [5]: 215 u/L
ASPARTATE AMINOTRANSFERASE [5]: 58.67 u/L
BLOOD UREA NITROGEN [5]: 11.33 mg/dL
CHLORIDE [5]: 106.67 MEQ/L
CHOLESTEROL [5]: 79 mg/dL
CREATINE PHOSPHOKINASE [5]: 134.33 u/L
CREATININE [5]: 0.5 mg/dL
GLUCOSE [5]: 175 mg/dL
PHOSPHORUS [5]: 11.67 mg/dL
POTASSIUM [5]: 7.4 MEQ/L
SODIUM [5]: 153.33 MEQ/L
TOTAL PROTEIN [5]: 6.17 G/DL
BASOPHIL [6]: 0%
EOSINOPHIL [6]: 0.33%
ERYTHROCYTE COUNT [6]: 6.63 x10E6/uL
HEMATOCRIT [6]: 39.83%
HEMOGLOBIN [6]: 14.4 G/DL
LEUKOCYTE COUNT [6]: 13.93 x10E3/uL
LYMPHOCYTE [6]: 93.67%
MEAN CORPUSCULAR HEMOGLOBIN [6]: 21.83 pg
MEAN CORPUSCULAR HEMOGLOBIN CONCENTRATION [6]: 36.23 G/DL
MEAN CORPUSCULAR VOLUME [6]: 60.27 fL
MONOCYTE [6]: 0%
NEUTROPHIL [6]: 6%
PLATELET COUNT [6]: 1193.67 x10E3/uL
ALANINE AMINOTRANSFERASE [6]: 45.67 u/L
ALBUMIN [6]: 3.47 G/DL
ALKALINE PHOSPHATASE [6]: 280 u/L
ASPARTATE AMINOTRANSFERASE [6]: 64.67 u/L
BLOOD UREA NITROGEN [6]: 9.67 mg/dL
CHLORIDE [6]: 108 MEQ/L
CHOLESTEROL [6]: 65.67 mg/dL
CREATINE PHOSPHOKINASE [6]: 144.33 u/L
CREATININE [6]: 0.5 mg/dL
GLUCOSE [6]: 162.33 mg/dL
PHOSPHORUS [6]: 9.47 mg/dL
POTASSIUM [6]: 6.3 MEQ/L
SODIUM [6]: 152.67 MEQ/L
TOTAL PROTEIN [6]: 5.8 G/DL
